Consider 1 substance from patent publication US12465618B2, “Compositions and methods for degenerative disc regeneration” (University Health Network, priority 2015, dated 2025).

The subject of assay [1] is human degenerative disc NP cells. The assay is described as follows: qRT-PCR with gene specific primers. Conditions: human degenerated disc NP cells, real time PCR. It is filed as cell-based. As for the experimental part:
Total RNA from healthy and treated (IL-1β alone or in combination with TNFα) rat NP cells, were isolated using RNAeasy extraction kit (Cat #74134, Qiagen) and quantified using a Nanodrop spectrophotometer. Total RNA (˜400 ng) was reverse-transcribed using RT^2 First Strand Kit (Cat #330401, Qiagen) following the manufacturer's instructions for preparing cDNA. To evaluate the effect of IL-1β alone or in combination with TNFα on extra-cellular matrix (ECM) genes in rat NP cells, the RT^2 Profiler™ PCR Array Rat Extracellular Matrix & Adhesion Molecules (PARN-013Z, Qiagen) was used and compared with no treatment controls (NTC) in 3 independent experiments using real time PCR performed on ABI 7900HT 384-well Fast block machine. Data analysis including calculation of ΔΔCt values, fold changes and p-values was carried out using software available online (https://www.qiagen.com/ca). Total RNA was isolated from human degenerative disc NP cells (H1/H2) treated with CTGF, TGFβ1, CTGF+TGFβ1 to evaluate their effect on collagen 2, HAPLN1, versican and thrombospondin 1 using gene specific primers. Similarly, RNA was isolated from human NP cells were treated with […] alone or in combination TNFα in presence of CTGF and TGFβ1 to determine their effect on Cox2 and MMP-13 expression using qRT-PCR.
(Real-time PCR tracks product formation cycle by cycle.)

The subject of assay [2] is human degenerated disc NP cells. The assay is described as follows: BrdU-ELISA cell proliferation assay. Conditions: 72 hrs. It is filed as cell-based. As for the experimental part: (§1) Nucleus pulposus cells (rat, bovine and human) were plated in 96-well flat bottom plates in order to evaluate the effect of treatment with growth factors in cell viability and proliferation assays. Rat NP cells were treated with CTGF, WISP-2 and TGFβ1 in a dose (1 ng/mL-100 ng/mL) and time dependent manner (24 hrs-96 hrs) to determine the optimum dose and time for the assessment of these growth factors on viability. Cell viability was determined using 3-(4,5-dimethylthiazol-2-yl)-2,5-diphenyltetrazolium bromide (MTT, Sigma-Aldrich, USA) as previously described^44. A BrdU-ELISA (colorimetric) assay (Cat #ab126556, Abcam) was used for determining the effect of treatment with CTGF or TGFβ1 on human and rat NP cells (healthy/injured) following the manufacturer's instructions. Briefly, NP cells were treated with CTGF or TGFβ1 alone or in combination for 48 hrs following addition of BrdU reagent O/N in each well. Incorporated BrdU in DNA of proliferating cells was determined using anti-BrdU antibody and quantified by ELISA as per the manufacturer's instructions.
Background: In an ELISA, binding on a coated surface is turned into a signal by an enzyme label.

In assay [3] the test system is rat NP cells (healthy/injured). The assay is described as follows: BrdU-ELISA cell proliferation assay. To be noted: rat-tail (healthy/injured) NP cells, 72 hrs. It is filed as cell-based. As for the experimental part: as §1
For assay [4], the system named is human degenerative disc NP cells. The assay is described as follows: Caspase 9 Lumi-Glo assay, cytokine induced. To be noted: 48 hrs. It is filed as cell-based. As for the experimental part: Apoptosis induced in NP cells (rat and human) as result of treatment with pro-inflammatory cytokines (IL-1β and TNFα) was determined using Caspase 3/7 and Caspase 9 specific Lumi-Glo assays (Promega, Madison). Briefly, NP cells were plated and treated with either IL-1β alone or in combination with TNFα only or in presence of CTGF and TGFβ1 for 48 hrs, followed by addition of specific reagents for Caspase 3/7 and Caspase 9 as per the manufacturer's instructions. Cells were incubated for another 4 hrs at 37° C., and plates were read in a multi-well luminescence plate reader.

The subject of assay [5] is rat-tail injured disc NPs. The assay is described as follows: Pre-clinical rodent needle puncture disc injury model of DDD, intra-discal injection. It is filed as in vivo, Wistar rat. As to the method:
12-week old female Wistar rats (Charles River Laboratories International, Inc., MA, USA) were used in order to develop a pre-clinical rodent model of DDD and to evaluate the therapeutic potential of NCCM, CTGF and TGFβ1 in these pre-clinical rodent models. Experiments were performed in accordance with the Guide for the Care and Use of Laboratory Animals, and the experimental protocols were approved by the ethics approval board of Toronto Western Hospital, Toronto, ON, Canada. The surgical procedure was as follows: Anesthesia was achieved using isofluorane (5 L/min plus 1 L/min O2) and maintained at 3 L/min. Once deeply anaesthetized, the animal was affixed on a stereotactic procedure apparatus (Model 900, Kopf Instruments California USA) with nose cone inhalation. For animal experiments, the tail was shaved and prepped with isopropanol in a sterile manner. Fluoroscopy was used to visualize needle penetration and to ensure that the needle penetrated into the center of the NP. For disc injury, a 26-gauge (G), 35° beveled, 0.75 inches high needle (Hamilton Company, USA) mounted on a Hamilton syringe was used. The needle was advanced completely through the selected tail IVD to penetrate the full thickness inclusive of the annulus fibrosus on both sides of the disc. Confirmation of needle placement was made using fluoroscopy and maintained in position for 2 minutes, withdrawn halfway to the center of the NP and left there for 1 minute and then slowly withdrawn completely over a 1-minute period. The animals were then removed from the stereotactic apparatus and allowed to recover in a warmed cage. At the end of study period i.e. 72 hrs-10 weeks, animals were humanely euthanized using CO2 and each vertebral lumbar/caudal motion segment was dissected aseptically. IVDs were either fixed in formalin for histological analysis or the nucleus pulposus (healthy/injured) was harvested and lysed in RIPA buffer (50 mM Tris, pH=7.4, 150 mM NaCl, 1% NP-40 and protease inhibitor cocktail) for western blotting.
To determine the regenerative potential of NCCM, CTGF or TGFβ1, 4 IVDs per animal of 12 week old rats were injured using a 26G needle as described above. Four weeks post-injury, animals were randomized into groups of six and an intra-discal injection (˜8 μL) of either NCCM, CTGF (100 ng/mL) or TGFβ1 (10 ng/mL) was given under local anesthesia. For NCCM injected animals, the control group consisted of animals that received an intra-discal injection (˜8 μL) of Hybridoma culture medium only, while phosphate buffered saline (PBS, 1×, pH=7.2) served as control for CTGF and TGFβ1 injected animal groups. Six weeks later, the NPs from injured and control discs were harvested and either fixed in formalin for histological analysis or lysed in RIPA lysis buffer for western blotting. Each of this experiment was repeated independently to ensure reproducibility.
The tissues were fixed in 10% formalin and decalcified in 10% EDTA solution. The decalcified disc was initially split in the mid sagittal plane, embedded in paraffin and 5p thick sections were obtained for histological evaluation. Hemaetoxylin and eosin (H&E) and Safranin-O staining was performed to assess general morphology and proteoglycan content in these tissue sections as previously described^16. For immunohistochemistry/immunofluorescence (IF), paraffin-embedded sections (5 μm) of human degenerative disc NP, bovine NP, healthy canines (NCD) and rat (healthy/injured) discs were deparaffinized in xylene, hydrated in gradient alcohol followed by antigen retrieval in Tris-EDTA buffer (pH=9.0). The sections were incubated with hydrogen peroxide (0.3% v/v) in methanol for 15 minutes to quench the endogenous peroxidase activity, followed by blocking with 10% serum to preclude non-specific binding. Thereafter, the slides were incubated with either rabbit or goat polyclonal/mouse monoclonal primary antibodies overnight (O/N) at 4° C. […]

Where [6] appears, read: rat tail injured discs, western blots, FIG. 12(b).

Consider “TGFβ1: Human recombinant transforming growth factor beta 1, Peprotech cat #100-21, identified in NCCM”, for which the “mRNA levels of collagen 2, HAPLN1, versican and thrombospondin1 (THBS1)” value in assay [1] is “Increased mRNA levels”. For the same substance, in assay [2], the “DNA synthesis (BrdU incorporation)” value was “Significant increase”. Further, the “DNA synthesis (BrdU incorporation)” value in assay [3] was “Significant increase”. The “IL-1β and TNFα induced caspase 9 activity” value in assay [4] was “significant reduction”. Also, the “aggrecan and collagen II (immunohistochemical analysis)” value in assay [5] (intra-discal injection four weeks following injury, 10 weeks post-injury, vs vehicle control) was “strong expression”. Besides, the “histological analysis, Safranin-O staining of NP” value in assay [5] (intra-discal injection four weeks following injury, CTGF 100 ng/mL, TGFβ1 10 ng/mL, 10 weeks post-injury, vs PBS) is listed as “healthy disc, rich in NCs”. In assay [5] (setting [6]), the “expression of MMP-13 and Cox2 in NP tissue lysates” value is “decreased expression”; the “stem cell marker Oct4 in NP tissue lysates” value is given as “restoration”.
